pIC50: −log10 of the molar value. Read-outs that look alike come from different tables or passages of the source. Each block holds one molecule with its values, some of them ahead of it.
What was measured:
Human thrombin [1] = target: T1, Human thrombin (Homo sapiens, UniProt P00734)
[2] = target: T2, recombinant soluble tissue factor and recombinant human factor VIIa (TF-VIIa) (Homo sapiens, UniProt P08709); assay: TF-VIIa Assay; assay type: biochemical
T2 construct: conversion of coagulation factor VII to VIIa by Xa; purchased American Diagnostica, Greenwich Conn; host or cells: factor VIIa purchased; soluble TF made in house in E. coli
T2 sequence (P08709 213-466 limits assumed): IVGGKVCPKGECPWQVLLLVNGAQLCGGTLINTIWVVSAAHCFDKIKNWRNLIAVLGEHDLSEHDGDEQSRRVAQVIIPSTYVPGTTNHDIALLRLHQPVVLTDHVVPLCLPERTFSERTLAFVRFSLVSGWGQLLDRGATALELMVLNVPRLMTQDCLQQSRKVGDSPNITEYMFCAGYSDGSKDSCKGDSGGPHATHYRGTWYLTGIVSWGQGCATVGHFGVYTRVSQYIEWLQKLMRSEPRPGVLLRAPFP
T2 sequence (P08709 61-212 limits assumed): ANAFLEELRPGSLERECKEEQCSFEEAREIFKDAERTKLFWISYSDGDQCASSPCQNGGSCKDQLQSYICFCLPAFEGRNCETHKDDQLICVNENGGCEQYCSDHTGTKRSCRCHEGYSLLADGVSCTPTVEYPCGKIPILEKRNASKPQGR
T2 sequence (P13726 33-251 partner limits assumed): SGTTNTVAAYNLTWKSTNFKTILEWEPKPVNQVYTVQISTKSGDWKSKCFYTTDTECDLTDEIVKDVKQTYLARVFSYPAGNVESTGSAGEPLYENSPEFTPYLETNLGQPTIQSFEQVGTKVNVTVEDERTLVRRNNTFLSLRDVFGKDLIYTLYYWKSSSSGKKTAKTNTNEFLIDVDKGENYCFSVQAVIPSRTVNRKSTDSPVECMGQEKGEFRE

[3] = target: T3, Trypsin (type 1× from porcine pancreas) (Sus scrofa, UniProt P00761); assay: Trypsin Assay; assay type: biochemical
T3 construct: Trypsin (5 ug/ml; type 1× from porcine pancreas); purchased Sigma, St. Louis Mo; host or cells: porcine pancreas
T3 sequence (P00761 9-231): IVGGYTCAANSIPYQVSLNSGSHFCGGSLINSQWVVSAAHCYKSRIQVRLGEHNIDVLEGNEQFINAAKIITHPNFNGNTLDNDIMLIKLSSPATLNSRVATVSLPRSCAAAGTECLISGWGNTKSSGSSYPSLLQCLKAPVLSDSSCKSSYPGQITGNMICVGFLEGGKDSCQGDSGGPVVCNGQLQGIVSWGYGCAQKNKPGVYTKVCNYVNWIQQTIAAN

Human factor Xa = target: T4, Human factor Xa (Homo sapiens, UniProt P00742); assay: Xa Assay; assay type: biochemical; conditions: for % Inhibition Factor Xa (30 µM): at 30 µM; for pIC50: cells without % sign
T4 construct: Human factor Xa (0.3 nM); purchased Enzyme Research Laboratories, South Bend Ind
T4 sequence (P00742 235-488 limits assumed): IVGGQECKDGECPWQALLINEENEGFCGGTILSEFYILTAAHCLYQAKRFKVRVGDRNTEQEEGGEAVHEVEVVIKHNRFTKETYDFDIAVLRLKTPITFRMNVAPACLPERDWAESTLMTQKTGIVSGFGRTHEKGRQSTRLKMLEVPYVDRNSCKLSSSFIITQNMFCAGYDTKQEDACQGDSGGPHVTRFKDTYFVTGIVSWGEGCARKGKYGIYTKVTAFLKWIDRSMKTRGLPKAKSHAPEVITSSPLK
T4 sequence (P00742 41-179 limits assumed): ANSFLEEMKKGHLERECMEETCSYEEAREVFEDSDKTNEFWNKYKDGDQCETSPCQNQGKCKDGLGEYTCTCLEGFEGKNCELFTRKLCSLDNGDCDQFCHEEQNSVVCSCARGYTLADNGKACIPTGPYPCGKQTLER

Human thrombin [4] = target: T1, Human thrombin; assay: biochemical
[5] = cells without % sign, read-out: IC50 Trypsin II
[6] = cells without % sign, read-out: IC50 TF-VIIa

Structure (SMILES): O=C(Cn1c(-c2ccc(-c3ccccc3)cc2)c(Cl)nc(NCc2ccccc2)c1=O)NCCc1cccnc1 [Example E-0110]
% Inhibition Thrombin II (100 νM) (Human thrombin [1]): 0%
% Inhibition TF-VIIa (100 νM) [2]: 0%

Structure (SMILES): CC(C(=O)NCc1ccc(C(=N)N)cc1)n1c(-c2ccccc2)c(Cl)nc(NC2CCC2)c1=O (centres unmarked) [Example 1517-11]
pIC50 [3, 5]: 5.72
% Inhibition Factor Xa (30 µM) (Human factor Xa; cells with % sign, and bare 0): 0%
pIC50 [2, 6]: 5.52

Structure (SMILES): O=C(Cn1c(-c2ccc(-c3ccccc3)cc2)c(Cl)nc(NCCc2ccncc2)c1=O)NCCc1ccncc1 [Example E-0054]
% Inhibition Thrombin II (100 νM) (Human thrombin [1]): 0%

Structure (SMILES): CC(C(=O)NCc1ccc(C(=N)N)cc1)n1c(-c2ccccc2)c(Cl)nc(NCCc2ccccc2)c1=O (centres unmarked) [Example 1517-17]
pIC50 [3, 5]: 6.07
% Inhibition Factor Xa (30 µM) (Human factor Xa; cells with % sign, and bare 0): 0%
pIC50 [2, 6]: 5.74

Structure (SMILES): CC(C(=O)NCc1ccc(C(=N)N)cc1)n1c(-c2ccccc2)c(Cl)nc(NCCc2cccc(Cl)c2)c1=O (centres unmarked) [Example 1517-23]
pIC50 [3, 5]: 5.85
% Inhibition Factor Xa (30 µM) (Human factor Xa; cells with % sign, and bare 0): 0%
pIC50 [2, 6]: 5.64

Structure (SMILES): N=C(N)c1ccc(CNC(=O)Cn2c(-c3cccc(N)c3)c(Cl)nc(NC(CC(=O)O)c3ccccc3)c2=O)cc1 (racemic) [Example 131]
pIC50 ([3]; read-out: IC50 Trypsin II, cell printed 'at 100 μM', cell adds 'at 100 μM'): 7.32
% Inhibition Factor Xa at 100 μM (Human factor Xa): 21% at
pIC50 ([2]; read-out: IC50 TF-VIIa, cell printed 'at 100 μM', cell adds 'at 100 μM'): 6.85

Structure (SMILES): N=C(N)c1ccc(C(=O)NCCn2c(-c3cccc(N)c3)c(Cl)nc(NC3CCC3)c2=O)cc1 [Example 136]
pIC50 (Human thrombin [4]): < 4.52

Structure (SMILES): N=C(N)c1ccc(CNC(=O)Cn2c(-c3cccc(N)c3)c(Cl)nc(NC3CC4CCC3C4)c2=O)cc1 (centres unmarked) [1526-30]
pIC50 [3, 5]: 6.70
pIC50 (Human factor Xa): < 4.52
pIC50 [2, 6]: 7.10

Structure (SMILES): CC(C)CC(C)Nc1nc(Cl)c(-c2cccc(N)c2)n(CC(=O)NCc2ccc(C(=N)N)cc2)c1=O (centres unmarked) [1526-17]
pIC50 [3, 5]: 6.77
pIC50 (Human factor Xa): < 4.52
pIC50 [2, 6]: 7.10

Structure (SMILES): COCC(C)Nc1nc(Cl)c(-c2ccccc2)n(CC(=O)NCc2ccc(C(=N)N)cc2)c1=O (centres unmarked) [1512-07]
% Inhibition Factor Xa (30 µM) (Human factor Xa): 4%
pIC50 ([2]; read-out: IC50 TF-VIIa): 5.44

Structure (SMILES): CCC(C)(C)Nc1nc(Cl)c(-c2cccc(N)c2)n(CC(=O)NCc2ccc(C(=N)N)cc2)c1=O [1526-06]
pIC50 [3, 5]: 6.68
pIC50 (Human factor Xa): < 4.52
pIC50 [2, 6]: 6.77

Structure (SMILES): CC(C(=O)NCc1ccc(C(=N)N)cc1)n1c(-c2ccccc2)c(Cl)nc(NC2CCC2)c1=O (centres unmarked) [Example 1517-09]
pIC50 [3, 5]: 5.82
% Inhibition Factor Xa (30 µM) (Human factor Xa; cells with % sign, and bare 0): 0%
pIC50 [2, 6]: 5.59

Structure (SMILES): CC(C(=O)NCc1ccc(C(=N)N)cc1)n1c(-c2ccccc2)c(Cl)nc(NCc2ccccc2)c1=O (centres unmarked) [Example 1517-03]
pIC50 [3, 5]: 5.70
% Inhibition Factor Xa (30 µM) (Human factor Xa; cells with % sign, and bare 0): 0%
pIC50 [2, 6]: 5.05

Structure (SMILES): N=C(N)c1ccc(CNC(=O)Cn2c(-c3cccc(N)c3)c(Cl)nc(NCCCCCC(N)=O)c2=O)cc1 [1543-11]
pIC50 [3, 5]: 7.40
% Inhibition Factor Xa (30 µM) (Human factor Xa; cells with % sign, and bare 0): 24%
pIC50 [2, 6]: 7.15

Structure (SMILES): Nc1cccc(-c2c(Cl)nc(NC3CCC3)c(=O)n2CC(=O)N2CCC3(CC2)OCCO3)c1 [1543-41]
% Inhibition Trypsin II (30 µM) ([3]; at 30 µM, cells with % sign): 6%
% Inhibition Factor Xa (30 µM) (Human factor Xa; cells with % sign, and bare 0): 9%
% Inhibition TF-VIIa (30 µM) ([2]; at 30 µM, cells with % sign): 3%

Structure (SMILES): O=C(Cn1c(-c2ccc(-c3ccccc3)cc2)c(Cl)nc(NCCc2cccc(Cl)c2)c1=O)NCCc1cccnc1 [Example E-0116]
% Inhibition Trpysin II (100 νM) [3]: 10%
% Inhibition Thrombin II (100 νM) (Human thrombin [1]): 0%

Structure (SMILES): O=C(Cn1c(-c2ccc(-c3ccccc3)cc2)c(Cl)nc(NCCc2cccnc2)c1=O)NCCc1ccncc1 [Example E-0053]
% Inhibition Trpysin II (100 νM) [3]: 0%
% Inhibition Thrombin II (100 νM) (Human thrombin [1]): 0%
% Inhibition TF-VIIa (100 νM) [2]: 0%

Structure (SMILES): O=C(Cn1c(-c2ccc(-c3ccccc3)cc2)c(Cl)nc(NCCc2ccc(Cl)cc2)c1=O)NCCc1cccnc1 [Example E-0119]
% Inhibition Trpysin II (100 νM) [3]: 10%
% Inhibition Thrombin II (100 νM) (Human thrombin [1]): 0%

Structure (SMILES): CC(C(=O)NCc1ccc(C(=N)N)cc1)n1c(-c2ccccc2)c(Cl)nc(NCc2ccccc2)c1=O (centres unmarked) [Example 1517-05]
pIC50 [3, 5]: 5.92
% Inhibition Factor Xa (30 µM) (Human factor Xa; cells with % sign, and bare 0): 0%
pIC50 [2, 6]: 5.34

Structure (SMILES): CCN(CC)CC(C)Nc1nc(Cl)c(-c2cccc(N)c2)n(CC(=O)NCc2ccc(C(=N)N)cc2)c1=O (centres unmarked) [1543-25]
pIC50 [3, 5]: 7.30
% Inhibition Factor Xa (30 µM) (Human factor Xa; cells with % sign, and bare 0): 26%
pIC50 [2, 6]: 6.55

Structure (SMILES): C[C@H](Nc1nc(Cl)c(-c2cccc(N)c2)n(CC(=O)NCc2ccc(C(=N)N)cc2)c1=O)C(=O)O [Example 135]
% Inhibition Factor Xa at 100 μM (Human factor Xa): 6% at

Structure (SMILES): O=C(Cn1c(-c2ccc(-c3ccccc3)cc2)c(Cl)nc(NCCN2CCOCC2)c1=O)NCCc1ccncc1 [Example E-0055]
% Inhibition Trpysin II (100 νM) [3]: 0%
% Inhibition Thrombin II (100 νM) (Human thrombin [1]): 0%
% Inhibition TF-VIIa (100 νM) [2]: 0%

Structure (SMILES): CC(C(=O)NCc1ccc(C(=N)N)cc1)n1c(-c2ccccc2)c(Cl)nc(NCCc2ccccc2)c1=O (centres unmarked) [Example 1517-15]
pIC50 [3, 5]: 5.82
% Inhibition Factor Xa (30 µM) (Human factor Xa; cells with % sign, and bare 0): 0%
pIC50 [2, 6]: 5.51

Structure (SMILES): CC(CC(=O)O)Nc1nc(Cl)c(-c2cccc(N)c2)n(CC(=O)NCc2ccc(C(=N)N)cc2)c1=O (centres unmarked) [Example 130]
% Inhibition Factor Xa at 100 μM (Human factor Xa): 24% at

Structure (SMILES): O=C(Cn1c(-c2ccc(-c3ccccc3)cc2)c(Cl)nc(NCc2ccncc2)c1=O)NCCc1ccncc1 [Example E-0056]
% Inhibition Trpysin II (100 νM) [3]: 0%
% Inhibition Thrombin II (100 νM) (Human thrombin [1]): 0%
% Inhibition TF-VIIa (100 νM) [2]: 0%

More lines, now with the values ahead:

% Inhibition Factor Xa at 100 μM (Human factor Xa): 44% at
Structure (SMILES): CC(C)Nc1nc(Cl)c(-c2cc(N)cc(C(=O)NCc3ccc(Br)cc3)c2)n(CC(=O)NCc2ccc(C(=N)N)cc2)c1=O [Example 128-8]

% Inhibition Factor Xa at 100 μM (Human factor Xa): 43% at
Structure (SMILES): CC(C)Nc1nc(Cl)c(-c2cc(N)cc(C(=O)NCc3ccc(Cl)cc3Cl)c2)n(CC(=O)NCc2ccc(C(=N)N)cc2)c1=O [Example 128-5]

% Inhibition Trpysin II (100 νM) ([3]; inhibitor at 100 νM): 0%
% Inhibition TF-VIIa (100 νM) ([2]; inhibitor at 100 νM): 0%
Structure (SMILES): Cc1c(Cl)nc(NCCc2ccccc2)c(=O)n1CC(=O)NCCc1ccncc1 [Example E-0002]

% Inhibition Trpysin II (100 νM) ([3]; inhibitor at 100 νM): 0%
% Inhibition TF-VIIa (100 νM) ([2]; inhibitor at 100 νM): 0%
Structure (SMILES): O=C(Cn1c(-c2ccc3c(c2)OCO3)c(Cl)nc(NCc2ccncc2)c1=O)NCCc1ccncc1 [Example E-0048]

% Inhibition Trpysin II (100 νM) ([3]; inhibitor at 100 νM): 2%
% Inhibition TF-VIIa (100 νM) ([2]; inhibitor at 100 νM): 0%
Structure (SMILES): O=C(Cn1c(-c2ccc3c(c2)OCO3)c(Cl)nc(NCc2ccccc2)c1=O)NCCc1ccncc1 [Example E-0041]

% Inhibition Trpysin II (100 νM) ([3]; inhibitor at 100 νM): 0%
% Inhibition TF-VIIa (100 νM) ([2]; inhibitor at 100 νM): 0%
Structure (SMILES): O=C(Cn1c(-c2ccccc2)c(Cl)nc(NCCc2ccccc2)c1=O)NCCc1ccncc1 [Example E-0010]

% Inhibition Trpysin II (100 νM) ([3]; inhibitor at 100 νM): 11%
% Inhibition TF-VIIa (100 νM) ([2]; inhibitor at 100 νM): 0%
Structure (SMILES): O=C(Cn1c(-c2cccc(Cl)c2)c(Cl)nc(NCc2ccccc2)c1=O)NCCc1cccnc1 [Example E-0086]

% Inhibition Trpysin II (100 νM) ([3]; inhibitor at 100 νM): 0%
% Inhibition TF-VIIa (100 νM) ([2]; inhibitor at 100 νM): 0%
Structure (SMILES): Cc1c(Cl)nc(NCc2ccncc2)c(=O)n1CC(=O)NCCc1ccncc1 [Example E-0008]

% Inhibition Trpysin II (100 νM) ([3]; inhibitor at 100 νM): 3%
% Inhibition TF-VIIa (100 νM) ([2]; inhibitor at 100 νM): 4%
Structure (SMILES): O=C(Cn1c(-c2cccc(Cl)c2)c(Cl)nc(NCCc2ccc(Cl)cc2)c1=O)NCCc1ccncc1 [Example E-0082]

% Inhibition Trpysin II (100 νM) ([3]; inhibitor at 100 νM): 11%
% Inhibition TF-VIIa (100 νM) ([2]; inhibitor at 100 νM): 2%
Structure (SMILES): COc1ccc(-c2c(Cl)nc(NCCc3cccc(Cl)c3)c(=O)n2CC(=O)NCCc2ccncc2)cc1 [Example E-0103]

% Inhibition Trpysin II (100 νM) ([3]; inhibitor at 100 νM): 8%
% Inhibition TF-VIIa (100 νM) ([2]; inhibitor at 100 νM): 3%
Structure (SMILES): O=C(Cn1c(-c2cccc(Cl)c2)c(Cl)nc(NCCc2ccccc2)c1=O)NCCc1cccnc1 [Example E-0089]

Reference: US7119094B1, “Substituted polycyclic aryl and heteroarpyl pyrazinones useful for selective inhibition of the coagulation cascade” (Warner-Lambert Company, priority 2000, dated 2006)
